# Read-outs that look alike come from different tables or passages of the source.
# Assays:
# PI3Kγ = target: T1, PI3Kγ (Homo sapiens, UniProt P48736); assay: PI3Kγ cellular assay in THP-1 cells (AKT pS473 AlphaLISA); type: cell-based
# T1 construct: host or cells: THP-1
# How it was run: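 Serum-starved THP-1 cells (1.8×10^5/well, serum-free DMEM) treated with compounds from 4 nM to 30 μM in 2% DMSO, then stimulated and lysed.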
# PI3Kγ (p120γ) = target: T2, PI3Kγ (p120γ) (Homo sapiens, UniProt P48736); assay: Inhibition of PI3K kinase activity (ADP Glo), PI3Kγ; conditions: read-out: biochemical potency (PI3Kγ IC50)
# T2 construct: purchased Promega V1761
# T2 sequence (P48736 whole entry): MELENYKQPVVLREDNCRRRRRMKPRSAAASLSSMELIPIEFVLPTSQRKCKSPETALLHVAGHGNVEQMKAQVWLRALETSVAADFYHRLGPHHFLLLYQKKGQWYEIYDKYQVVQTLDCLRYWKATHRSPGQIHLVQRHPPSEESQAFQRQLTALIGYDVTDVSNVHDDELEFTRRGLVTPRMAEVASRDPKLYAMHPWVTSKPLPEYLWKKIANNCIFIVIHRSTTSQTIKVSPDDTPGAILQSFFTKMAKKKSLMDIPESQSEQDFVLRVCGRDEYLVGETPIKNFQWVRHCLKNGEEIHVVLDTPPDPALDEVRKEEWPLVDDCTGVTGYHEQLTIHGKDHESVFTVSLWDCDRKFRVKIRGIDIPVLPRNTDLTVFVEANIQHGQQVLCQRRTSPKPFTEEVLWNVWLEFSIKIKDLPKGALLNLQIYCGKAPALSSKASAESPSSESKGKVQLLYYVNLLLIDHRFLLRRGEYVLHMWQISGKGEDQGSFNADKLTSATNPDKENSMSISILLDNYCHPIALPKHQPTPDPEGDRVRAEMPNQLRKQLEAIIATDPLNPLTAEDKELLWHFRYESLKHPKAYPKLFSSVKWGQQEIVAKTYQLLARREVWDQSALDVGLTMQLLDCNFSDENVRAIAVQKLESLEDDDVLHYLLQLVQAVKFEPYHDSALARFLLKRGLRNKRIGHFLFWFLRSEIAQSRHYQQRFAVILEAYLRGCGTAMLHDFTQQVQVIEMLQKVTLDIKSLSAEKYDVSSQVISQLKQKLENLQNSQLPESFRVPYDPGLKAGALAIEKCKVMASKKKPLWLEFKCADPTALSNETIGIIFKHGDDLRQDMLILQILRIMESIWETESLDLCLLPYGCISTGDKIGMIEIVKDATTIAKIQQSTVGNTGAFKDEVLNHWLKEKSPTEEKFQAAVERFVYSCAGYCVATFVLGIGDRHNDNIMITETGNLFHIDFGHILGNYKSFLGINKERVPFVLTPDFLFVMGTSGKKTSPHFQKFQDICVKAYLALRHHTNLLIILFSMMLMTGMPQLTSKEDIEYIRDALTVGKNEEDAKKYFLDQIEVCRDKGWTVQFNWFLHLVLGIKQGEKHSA
# How it was run: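 Recombinant p120γ (8 nM, 2× stock) was preincubated with compound for 1 h at rt in HEPES pH 7.4, NaCl, MgCl2 and 0.05% BSA. Reaction was started with PIP2 (0.1 mg/ml, 2×) and ATP (50 μM, 2×) and ran 60 min at rt. ADP formed was read by ADP-Glo luminescence, and IC50 came from a 4-parameter fit.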
# [1] = AKT pS473, read-out: cellular potency (PI3Kγ IC50)
# T1 sequence (P48736 whole entry): as above
Structure (SMILES),"IC50 (PI3Kγ; Table 3, rhMCP-1 stimulated AKT pS473, read-out: cellular potency (PI3Kγ IC50))","IC50 (PI3Kγ (p120γ); Table 3, p120γ)",IC50 (PI3Kγ; [1]),IC50 (PI3Kγ (p120γ))
C[C@@H](C1CC1)N1Cc2cc(-c3ccn4nc(N)c(C(=O)N[C@H]5CC[C@H](N)CC5)c4n3)cc(C(F)(F)F)c2C1=O [Example 368],100 to 1000 nM,< 100 nM,,
CC(CO)NC(=O)c1c(N)nn2ccc(-c3cc(F)c4c(c3)CN([C@@H](C)C3CC3)C4=O)nc12 (stereo partly drawn) [Example 369],,,100 to 1000 nM,< 100 nM
C[C@@H](C1CC1)N1Cc2cc(-c3ccn4nc(N)c(C(=O)NC5CC5)c4n3)cc(F)c2C1=O [Example 370],,,100 to 1000 nM,< 100 nM
C[C@@H](C1CC1)N1Cc2cc(-c3ccn4nc(N)c(C(=O)Nc5ccc(=O)[nH]c5)c4n3)cc(NS(C)(=O)=O)c2C1=O [Example 371],,,100 to 1000 nM,< 100 nM
C[C@@H](C1CC1)N1Cc2cc(-c3ccn4nc(N)c(C(=O)N[C@H]5CCNC5=O)c4n3)cc(NS(C)(=O)=O)c2C1=O [Example 372],,,100 to 1000 nM,< 100 nM
C[C@@H](C1CC1)N1Cc2cc(-c3ccn4nc(N)c(C(=O)NC(C)(C)C(N)=O)c4n3)cc(NS(C)(=O)=O)c2C1=O [Example 373],,,100 to 1000 nM,< 100 nM
C[C@@H](C1CC1)N1Cc2cc(-c3ccn4nc(N)c(C(=O)N[C@H]5CNC(=O)C5)c4n3)cc(NS(C)(=O)=O)c2C1=O [Example 374],,,100 to 1000 nM,< 100 nM
COC(=O)c1cc(NC(=O)c2c(N)nn3ccc(-c4cc5c(c(NS(C)(=O)=O)c4)C(=O)N([C@@H](C)C4CC4)C5)nc23)ccn1 [Example 375],,,100 to 1000 nM,< 100 nM
C[C@@H](C1CC1)N1Cc2cc(-c3ccn4nc(N)c(C(=O)N[C@@H](CO)C(F)(F)F)c4n3)cc(NS(C)(=O)=O)c2C1=O [Example 376],,,100 to 1000 nM,< 100 nM
C[C@@H](C1CC1)N1Cc2cc(-c3ccn4nc(N)c(C(=O)NC5C6CC7CC5CC(O)(C7)C6)c4n3)cc(NS(C)(=O)=O)c2C1=O (stereo partly drawn) [Example 377],,,< 100 nM,< 100 nM
C[C@@H](C1CC1)N1Cc2cc(-c3ccn4nc(N)c(C(=O)Nc5cccc(F)c5)c4n3)cc(NS(C)(=O)=O)c2C1=O [Example 378],,,100 to 1000 nM,< 100 nM
C[C@@H](C1CC1)N1Cc2cc(-c3ccn4nc(N)c(C(=O)Nc5ccnc(CO)c5)c4n3)cc(NS(C)(=O)=O)c2C1=O [Example 379],,,> 1000 nM,< 100 nM
COc1ccc(NC(=O)c2c(N)nn3ccc(-c4cc5c(c(NS(C)(=O)=O)c4)C(=O)N([C@@H](C)C4CC4)C5)nc23)cc1 [Example 380],,,100 to 1000 nM,< 100 nM
C[C@@H](C1CC1)N1Cc2cc(-c3ccn4nc(N)c(C(=O)NCC5(O)CC5)c4n3)cc(NS(C)(=O)=O)c2C1=O [Example 381],,,100 to 1000 nM,< 100 nM
C[C@H](NC(=O)c1c(N)nn2ccc(-c3cc4c(c(NS(C)(=O)=O)c3)C(=O)N([C@@H](C)C3CC3)C4)nc12)C(N)=O [Example 382],,,100 to 1000 nM,< 100 nM
C[C@@H](C1CC1)N1Cc2cc(-c3ccn4nc(N)c(C(=O)NCCO)c4n3)cc(NS(C)(=O)=O)c2C1=O [Example 383],,,100 to 1000 nM,< 100 nM
C[C@@H](C1CC1)N1Cc2cc(-c3ccn4nc(N)c(C(=O)N[C@@H]5CCCC[C@H]5O)c4n3)cc(NS(C)(=O)=O)c2C1=O [Example 384],,,100 to 1000 nM,< 100 nM
COC[C@@H](C)NC(=O)c1c(N)nn2ccc(-c3cc4c(c(NS(C)(=O)=O)c3)C(=O)N([C@@H](C)C3CC3)C4)nc12 [Example 385],,,100 to 1000 nM,< 100 nM
C[C@@H](C1CC1)N1Cc2cc(-c3ccn4nc(N)c(C(=O)Nc5cccc(C#N)c5)c4n3)cc(NS(C)(=O)=O)c2C1=O [Example 386],,,100 to 1000 nM,< 100 nM
COc1cncc(NC(=O)c2c(N)nn3ccc(-c4cc5c(c(NS(C)(=O)=O)c4)C(=O)N([C@@H](C)C4CC4)C5)nc23)c1 [Example 387],,,100 to 1000 nM,< 100 nM
C[C@@H](C1CC1)N1Cc2cc(-c3ccn4nc(N)c(C(=O)Nc5ccc(F)cc5)c4n3)cc(NS(C)(=O)=O)c2C1=O [Example 388],,,100 to 1000 nM,< 100 nM
C[C@@H](C1CC1)N1Cc2cc(-c3ccn4nc(N)c(C(=O)Nc5ccc(CC(F)(F)F)nc5)c4n3)cc(NS(C)(=O)=O)c2C1=O [Example 389],,,100 to 1000 nM,< 100 nM
COCC(C)(C)NC(=O)c1c(N)nn2ccc(-c3cc4c(c(NS(C)(=O)=O)c3)C(=O)N([C@@H](C)C3CC3)C4)nc12 [Example 390],,,100 to 1000 nM,< 100 nM
Cc1ccccc1NC(=O)c1c(N)nn2ccc(-c3cc4c(c(NS(C)(=O)=O)c3)C(=O)N([C@@H](C)C3CC3)C4)nc12 [Example 391],,,100 to 1000 nM,< 100 nM

# Source: patent US20230024302A1, “2,3,5-TRISUBSTITUTED PYRAZOLO[1,5-A]PYRIMIDINE COMPOUNDS” (Arcus Biosciences, Inc., priority 2019, published 2023)
